Two compounds from patent publication US10980735B2, “Externally-applied dermal preparation composition containing extract of green tea cultivated under extreme shading” (AMOREPACIFIC CORPORATION, priority 2016, dated 2021) can be followed below.

The target of one test is T1, elastase type III (Sus scrofa, UniProt P00772).
T1 construct: purchased Sigma-Aldrich, U.S.A. E0127
As to the kind of experiment: Inhibitory effect of elastase activity. The conditions noted are these: EGCG 250 μM as positive control; 25° C., 15 minutes, pH 8.0. The format is biochemical. As to the method:
The inhibitory effect of elastase activity of the extract of green tea cultivated by extreme light-shielding on anti-aging was measured in comparison with that of EGCG. The elastase and the substrate used herein were purchased from Sigma-Aldrich, […]0127). The inhibitory function of elastase activity was tested according to the following method. In a 96-well plate, […] (200 μL) and 50 μL of a 20 μg/mL elastase type III solution were mixed with a […] Tris-HCL buffer solution (pH 8.0). EGCG 250 μM was used as a positive control, and purified water was used as a non-treated group, which was a negative control. […] After completion of the reaction, the absorbance at the wavelength of 415 nm was measured. […] The inhibitory function of elastase was calculated according to the following Mathematical Formula 2, and the results are shown in Table 10. […] A: Absorbance at the wavelength of 415 nm in the absence of the test material and in the presence of enzyme B: Absorbance at the wavelength of 415 nm in the absence of the test material and enzyme C: Absorbance at the wavelength of 415 nm in the presence of the test material and enzyme D: Absorbance at the wavelength of 415 nm in the presence of the test material and in the absence of enzyme

Another test relates to collagenase (MMP-1). As to the kind of experiment: Collagenase (MMP-1) production in human fibroblasts (ELISA). The format is cell-based. The conditions noted are these: 10 μg/ml, 24 hours, non-treated group = 100. The method, then:
The collagenase production inhibitory effect of the present invention on wrinkle improvement was measured in comparison with retinoic acid.
Human fibroblasts were seeded at 5,000 cells/well in a 96-well microtiter plate filled with a Dulbecco's modified eagle's medium (DMEM) containing 2.5% fetal bovine serum and cultured in a 5% CO2 incubator at 37° C. until they grew by about 70 to 80%. The cells were treated with the extracts of Examples 1 and 2 and Comparative Examples 1 and 3 or retinoic acid at a concentration of 10 μg/ml for 24 hours, and the cell culture was collected.
The production yield of collagenase in the collected cell culture was measured using a collagenase measurement instrument commercially available (Catalog #. RPN 2610, manufactured by Amersham Pharma Inc., USA). […]
The absorbance of the yellow-colored 96-well plate was measured at 405 nm with a spectrophotometer, and the expression level of collagenase was calculated according to the following Mathematical Formula 1. At this time, the absorbance of the cell culture collected from the group not treated with the composition was considered as the control group. Expression level of collagenase (%)=Absorbance of substance-treated cell group/Absorbance of control group×100 [Mathematical Formula 1]

Each structure is given as a SMILES string.

T1 sequence (P00772 27-266): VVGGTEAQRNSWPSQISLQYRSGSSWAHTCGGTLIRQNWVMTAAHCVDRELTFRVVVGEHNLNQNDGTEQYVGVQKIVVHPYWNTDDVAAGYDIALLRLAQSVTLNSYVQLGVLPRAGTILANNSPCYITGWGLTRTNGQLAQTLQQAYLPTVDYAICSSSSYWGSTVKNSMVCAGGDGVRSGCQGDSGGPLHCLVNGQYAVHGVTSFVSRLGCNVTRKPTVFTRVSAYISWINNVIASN

For `O=C(O[C@@H]1Cc2c(O)cc(O)cc2O[C@@H]1c1cc(O)c(O)c(O)c1)c1cc(O)c(O)c(O)c1` [EGCG], the “Inhibition level of elastase activity” value at elastase type III is 65%.

As to `CC1=C(/C=C/C(C)=C/C=C/C(C)=C/C(=O)O)C(C)(C)CCC1` [Retinoic acid, retinoic acid], in the test on collagenase (MMP-1), the “Expression level of collagenase” value is reported as 75%.
